In US20150342956A1, “METHODS OF TREATMENT FOR CONDITIONS MEDIATED BY SUBSTANCE P” (Beller Pharmaceuticals LLC, priority 2014, published 2015):

Legend:
[1] = system: INS symptoms in patients with a diagnosis of atypical reflux; experiment: Retrospective medical record review: global level of improvement (GLI) with immunotherapy and/or oral medications; type: in vivo, human; conditions: GLI 0-100% score
Procedure: Some symptoms of INS have previously been associated with atypical reflux. This example describes a retrospective medical record review for cases in which these symptoms were treated with immunotherapy (allergy shots) and/or oral medications (omeprazole, gabapentin, and/or baclofen).
The population for this example included patients 18 years or older with a diagnosis of atypical reflux and a recorded diagnostic code of 530.81 (see, e.g., http://www.cms.gov/Medicare/Coding/ICD9ProviderDiagnosticCodes/index.html). A randomized sample of 307 cases was derived from a total of 650 patients.
Of the 307 cases, 191 (62.2%) patients tested positive for allergy, 74 (24.1%) were negative, and 42 (13.7%) had unknown allergy status. Allergy refers to IgE-mediated allergies such as ragweed, dust mites, trees, grass, pets, stinging insects, peanuts, etc. Of the 191 cases with allergy, 57 (29.8%) had no immunotherapy, 8 (4.2%) had received immunotherapy in the past, and 126 (66.0%) were currently receiving immunotherapy. Of the 126 currently receiving immunotherapy (abbreviated below as “IT”), 70 (55.6%) had reached maintenance dosing (defined as the effective, therapeutic dose; “on main”) and 56 […] had not yet reached maintenance dosing (“not on main”). The period of immunotherapy is about 3-5 years, and individuals typically reach maintenance dosing by the second half of the first year.
Of the 307 cases, 213 (69.3%) were taking one medication and 86 (28%) were taking no medication. Seven patients were taking two medications, and one patient was taking three medications. Three oral medications used to treat INS were compared: high dose acid suppression using omeprazole (40 mg twice a day), baclofen (40 mg twice a day), and gabapentin (300 mg gradually increasing from one to three times a day).
Global level of improvement (GLI) was represented by a 0-100% score. At each clinical visit, patients were asked to estimate the percentage of their overall improvement. Those figures were entered into the medical record as a GLI score. Trials documented as failed (stopped either due to lack of benefit or dose-limiting side effects) or inadequate (dose never titrated to benefit or side effect) are not included in the results below.

INS symptoms = experiment: Exemplary cases of INS: patient-ranked symptom severity (1-10) and GLI score before and after treatment; type: in vivo, human; conditions: for Global Improvement (global level of improvement): three months (gabapentin stopped more than a month prior)
Procedure: This example describes three exemplary cases of INS. Patients were given a list of INS symptoms and asked to rank those present on a scale of 1-10, with 10 indicating most severe. Treatment was provided (gabapentin, omeprazole, and/or immunotherapy).
Patient two is a person who presented complaining of cough, runny nose, and sneezing. […] They were started on gabapentin (900 mg) and returned in two weeks for re-evaluation. They reported 60% global level of improvement with gabapentin. They were also started on immunotherapy for its long-lasting benefits. They returned for further evaluation three months later to report they had improved by 85% and had stopped the gabapentin more than a month prior to their last visit. Their symptoms were scored for severity from 1 (mild) to 10 (severe) on initial evaluation, after gabapentin, and after three months of immunotherapy. Their scores are below:
Patient three is a person who presented complaining of cough, post nasal drip, and runny nose. […] The patient was started on immunotherapy and returned for follow-up after four months of immunotherapy. Due to their busy schedule the patient had missed several shot visits and their immunotherapy doses were never increased to the maximum, maintenance dose. They were receiving doses at 1/10th of the maintenance dose. They reported 40% improvement. Omeprazole 40 mg two times daily was added to their regimen and they returned for re-evaluation one week later to report 100% improvement. Their symptom scores are below:
Patient one is a child who presented with their parent complaining of shortness of breath and cough. […] Their parent stated that they commonly wet the bed 2-3 times each night. They were started on omeprazole 20 mg twice a day and returned in a week. […] Their parent estimated 45% global level of improvement. The omeprazole was discontinued due to headaches and they were started on gabapentin. Their parent was advised to increase the dose slowly until it seemed to help or was causing side effects. They returned in two weeks for re-evaluation and had achieved 900 mg twice daily on gabapentin. Their parent estimated 85% global level of improvement.

[2] = No IT (no allergy, or positive allergy but no immunotherapy)
[3] = Patient one, omeprazole 20 mg twice a day, one week, then gabapentin 900 mg twice daily, two weeks
[4] = Patient one, score 1-10, 0 = not present, initial visit 0, omeprazole 20 mg twice a day, one week, then gabapentin 900 mg twice daily, two weeks
[5] = Patient one, score 1-10, 0 = not present, initial visit 3, omeprazole 20 mg twice a day, one week, then gabapentin 900 mg twice daily, two weeks
[6] = Patient one, score 1-10, 0 = not present, initial visit 4, omeprazole 20 mg twice a day, one week, then gabapentin 900 mg twice daily, two weeks
[7] = Patient one, score 1-10, 0 = not present, initial visit 5, omeprazole 20 mg twice a day, one week, then gabapentin 900 mg twice daily, two weeks
[8] = Patient one, score 1-10, 0 = not present, initial visit 6, omeprazole 20 mg twice a day, one week, then gabapentin 900 mg twice daily, two weeks
[9] = Patient one, score 1-10, 0 = not present, initial visit 7, omeprazole 20 mg twice a day, one week, then gabapentin 900 mg twice daily, two weeks
[10] = Patient one, score 1-10, 0 = not present, initial visit 8, omeprazole 20 mg twice a day, one week, then gabapentin 900 mg twice daily, two weeks
[11] = Patient one, score 1-10, 0 = not present, initial visit 10, omeprazole 20 mg twice a day, one week, then gabapentin 900 mg twice daily, two weeks
[12] = Patient two, score 1-10, 0 = not present, initial visit 5, gabapentin 900 mg, two weeks, immunotherapy, three months
[13] = Patient two, score 1-10, 0 = not present, initial visit 6, gabapentin 900 mg, two weeks, immunotherapy, three months
[14] = Patient two, score 1-10, 0 = not present, initial visit 7, gabapentin 900 mg, two weeks, immunotherapy, three months
[15] = Patient two, score 1-10, 0 = not present, initial visit 8, gabapentin 900 mg, two weeks, immunotherapy, three months
[16] = Patient two, score 1-10, 0 = not present, initial visit 10, gabapentin 900 mg, two weeks, immunotherapy, three months
[17] = Patient three, score 1-10, 0 = not present, initial visit 5, immunotherapy four months at 1/10th of maintenance dose, then omeprazole 40 mg two times daily added, one week
[18] = Patient three, score 1-10, 0 = not present, initial visit 6, immunotherapy four months at 1/10th of maintenance dose, then omeprazole 40 mg two times daily added, one week
[19] = Patient three, score 1-10, 0 = not present, initial visit 7, immunotherapy four months at 1/10th of maintenance dose, then omeprazole 40 mg two times daily added, one week
[20] = Patient three, score 1-10, 0 = not present, initial visit 10, immunotherapy four months at 1/10th of maintenance dose, then omeprazole 40 mg two times daily added, one week

NCC1(CC(=O)O)CCCCC1 [Gabapentin, gabapentin]
70.29%: Mean GLI ([1]; IT on maintenance dosing)
5: Shortness of breath severity score (INS symptoms; [7]) | Throat Clearing severity score (INS symptoms; [10])
85%: Global Improvement (global level of improvement, estimated by mother) (INS symptoms; [3]) | Global Improvement (global level of improvement, estimated by mother) (INS symptoms; Patient one, omeprazole 20 mg twice a day, one week, then gabapentin 900 mg twice daily, two weeks, listed as gabapentin)
4: Shortness of breath severity score (INS symptoms; [13]) | Itchy Skin severity score (INS symptoms; [16])
3: Cough severity score (INS symptoms; [10]) | Post Nasal Drip severity score (INS symptoms; [10]) | Fatigue severity score (INS symptoms; [13]) | Glossodynia severity score (INS symptoms; [14]) | Puffy Eyelids severity score (INS symptoms; [15]) | Itchy Pharynx severity score (INS symptoms; [16]) | Sinus Pressure severity score (INS symptoms; [16])
2: Fatigue severity score (INS symptoms; [6]) | Malaise severity score (INS symptoms; [6]) | Pollakiuria severity score (INS symptoms; [10]) | Ear Pressure severity score (INS symptoms; [12]) | Watery Eyes severity score (INS symptoms; [12]) | Chest Tightness severity score (INS symptoms; [14]) | Cough severity score (INS symptoms; Patient two, score 1-10, 0 = not present, initial visit 9, gabapentin 900 mg, two weeks, immunotherapy, three months) | Repetitive Sneezing severity score (INS symptoms; [16])
55.19%: Mean GLI ([1]; No allergy)
69.09%: Mean GLI ([1]; IT not on maintenance dosing)
60%: Global Improvement (global level of improvement) (INS symptoms; Patient two, gabapentin 900 mg, two weeks, immunotherapy) | Global Improvement (global level of improvement) (INS symptoms; Patient two, gabapentin 900 mg, two weeks, immunotherapy, listed as gabapentin)
1: Hoarse Voice severity score (INS symptoms; Patient two, score 1-10, 0 = not present, initial visit 2, gabapentin 900 mg, two weeks, immunotherapy, three months) | Pain in the teeth severity score (INS symptoms; Patient two, score 1-10, 0 = not present, initial visit 3, gabapentin 900 mg, two weeks, immunotherapy, three months) | Malaise severity score (INS symptoms; [12]) | Runny Nose severity score (INS symptoms; [14]) | Sore Throat severity score (INS symptoms; [14]) | Throat Clearing severity score (INS symptoms; [14]) | Vertigo severity score (INS symptoms; [14]) | Post Nasal Drip severity score (INS symptoms; [15]) | Frontal Headache severity score (INS symptoms; [16]) | Itchy Eyes severity score (INS symptoms; [16])
65.58%: Mean GLI [1, 2]
0: Frontal Headache severity score (INS symptoms; [4]) | Vulvodynia severity score (INS symptoms; [5]) | Nausea severity score (INS symptoms; [6]) | Chest Tightness severity score (INS symptoms; [8]) | Watery Eyes severity score (INS symptoms; [8]) | Sore Throat severity score (INS symptoms; [9]) | Bedwetting severity score (INS symptoms; [11]) | Runny Nose severity score (INS symptoms; [11])

COc1ccc2[nH]c([S+]([O-])Cc3ncc(C)c(OC)c3C)nc2c1 (stereo not shown) [Omeprazole, omeprazole]
1: Excessive Ear Wax severity score (INS symptoms; [17]) | Hoarse Voice severity score (INS symptoms; [19]) | Itchy Eyes severity score (INS symptoms; [19])
56.67%: Mean GLI [1, 2]
8: Frontal Headache severity score (INS symptoms; [4]) | Throat Clearing severity score (INS symptoms; [10])
4: Cough severity score (INS symptoms; [10])
100%: Global Improvement (INS symptoms; Patient three, immunotherapy four months at 1/10th of maintenance dose, then omeprazole 40 mg two times daily added, one week)
0: Vulvodynia severity score (INS symptoms; [5]) | Nausea severity score (INS symptoms; [6]) | Bedwetting severity score (INS symptoms; [11]) | Ear Pressure severity score (INS symptoms; [17]) | Pain in the teeth severity score (INS symptoms; [17]) | Repetitive Sneezing severity score (INS symptoms; [17]) | Epistaxis severity score (INS symptoms; [18]) | Frontal Headache severity score (INS symptoms; [18]) | Pollakiuria severity score (INS symptoms; [18]) | Sore Throat severity score (INS symptoms; [19]) | Watery Eyes severity score (INS symptoms; [19]) | Chest Tightness severity score (INS symptoms; [20]) | Cough severity score (INS symptoms; [20]) | Nasal Congestion severity score (INS symptoms; [20]) | Post Nasal Drip severity score (INS symptoms; [20]) | Runny Nose severity score (INS symptoms; [20]) | Sinus Pressure severity score (INS symptoms; [20]) | Throat Clearing severity score (INS symptoms; [20]) | Vertigo severity score (INS symptoms; [20])
80.00%: Mean GLI ([1]; IT on maintenance dosing)
45%: Global Improvement (global level of improvement, estimated by mother) (INS symptoms; [3]) | Global Improvement (global level of improvement, estimated by mother) (INS symptoms; Patient one, omeprazole 20 mg twice a day, one week, then gabapentin 900 mg twice daily, two weeks, listed as omeprazole)
5: Shortness of breath severity score (INS symptoms; [7]) | Sore Throat severity score (INS symptoms; [9]) | Runny Nose severity score (INS symptoms; [11])
3: Chest Tightness severity score (INS symptoms; [8]) | Post Nasal Drip severity score (INS symptoms; [10])
41.00%: Mean GLI ([1]; No allergy)
some headaches: Possible side effect (INS symptoms; Patient one, omeprazole 20 mg twice a day, one week, drug discontinued)
60.00%: Mean GLI ([1]; IT not on maintenance dosing)
2: Fatigue severity score (INS symptoms; [6]) | Malaise severity score (INS symptoms; [6]) | Watery Eyes severity score (INS symptoms; [8]) | Pollakiuria severity score (INS symptoms; [10])

NCC(CC(=O)O)c1ccc(Cl)cc1 (stereo not shown) [Baclofen, baclofen]
70.00%: Mean GLI ([1]; IT on maintenance dosing)
53.94%: Mean GLI [1, 2]
65.00%: Mean GLI ([1]; No allergy)
88.33%: Mean GLI ([1]; IT not on maintenance dosing)
